Results reported in US5053333A, “Protease” (M & D Research Co., Ltd., priority 1988, dated 1991).
“Also recorded” adds a separate entry of the source. Like-named read-outs stand apart in the source and are kept apart here. Square brackets hold non-standard residues; d marks the D form. Ends that are not written are not given here. Peptide text beside a SMILES is read from it. * marks the point of attachment. AMC = Cc1cc(=O)oc2cc(N*)ccc12; pGlu = O=C1CC[C@@H](C(=O)O)N1; Boc = CC(C)(C)OC(=O)*

Key:
[1] = tested on: Benz-I (protease specific for basic amino acid residue); assay: Substrate specificity of Benz-I with fluorescent substrates; format: biochemical, Kluyveromyces lactis IFO 1903; details: activity for Boc-Gln-Arg-Arg-MCA being 100; standard conditions
Method: (§1) 1 ml of a reaction mixture containing 50 μmol of Tris-hydrochloride buffer (pH 7.0), 10 mg of Lubrol PX, 0.5 μmol of calcium chloride, 0.1 μmol of Boc-Gln-Arg-Arg-MCA, wherein Boc represents a t-butyloxycarbonyl group while MCA represents 4-methylcoumarin-7-amide and the enzyme is allowed to react at 30° C. The fluorescence (excition wavelength: 380 nm, emmision wavelength: 460 nm) originating from the 7-amino-4-methylcoumarin (AMC) thus formed is monitored with the lapse of time. The amount of the enzyme activity capable of catalyzing the release of 1 n mol of AMC per one minute is defined as 1 U. The specific activity is represented by U per mg of protein. The amount of the protein is determined by measurement the absorbance at […] as E^1% of protein being assumed to be 10.
(§2) The activities of Benz-I and Benz-II were determined under standard conditions with the use of various fluorescent substrates. The activity for each substrate was expressed by relative activity with the activity for Boc-Gln-Arg-Arg-MCA being 100.

[2] = tested on: Benz-II (protease specific for basic amino acid residue); assay: Substrate specificity of Benz-II with fluorescent substrates; format: biochemical, Kluyveromyces lactis IFO 1903; details: activity for Boc-Gln-Arg-Arg-MCA being 100; standard conditions
Method: as §1, §2

[3] = tested on: protease specific for basic amino acid residue from Sporobolomyces odrus IFO 1597; assay: Substrate specificity of Sporobolomyces protease with fluorescent substrates; format: biochemical; details: activity for Boc-Gln-Arg-Arg-MCA being 100; standard conditions
Method: A reaction mixture containing 50 μmol of tris hydrochloride buffer solution (pH 7.0), 10 mg of Lubrol PX, 0.5 μmol of calcium chloride, 0.1 μmol of Boc-Gln-Arg-Arg-MCA, wherein Boc represents a t-butyloxycalbonyl group while MCA represents 4-methylcoumarin-7-amide and the enzyme is allowed to react at 30° C. The fluorescence (excition wavelength: 380 nm, emission wavelength: 460 nm) originating from the 7-amino-4-methylcoumarin (AMC) thus formed is monitored. The amount of the enzyme capable of catalyzing the release of 1 nmol of AMC per one minute is defined as 1 U.
The activities of the enzyme for various fluorescent substrates were determined under standard reaction conditions.

[4] = tested on: Benz-I (protease specific for basic amino acid residue); assay: Cleavage of peptides by Benz-I, HPLC and amino acid composition of fragments; format: biochemical, Kluyveromyces lactis IFO 1903
Method: The composition of the employed reaction mixture and the examination conditions were as follows. Namely, 500 μl of a reaction mixture containing 25 μmol of tris hydrochloride buffer solution (pH 7.0), 0.25 μmol of CaCl2, 5 mg of Lubrol PX, 100 μg of NaN3, each peptide at various concentrations and Benz-I at various concentrations was allowed to react at 30° C. for 20 hours.
50-μl portions of the reaction mixture were sampled after the reaction for 0 and 20 hours and 50 μl of a reaction terminating agent comprising 0.2% of TFA and 10 mM of EDTA was added thereto. The resulting mixture was analyzed by HPLC. The HPLC was conducted by CH3 CN gradient elution with the use of an Ultron NC18 column (0.45×15 cm) or a TSK gel ODS-80TM column (0.46×25 cm) in the presence of 0.1% of TFA.
The residual reaction mixture was chromatographed under the same conditions as those employed in the above analysis and main peaks were fractionated. The fractionated eluate was evaporated to dryness on a centrifugal evaporator and decomposed with hydrochloric acid at 110° C. for 24 hours. Then each fragment was assumed from the amino acid composition.

[5] = tested on: Benz-I (protease specific for basic amino acid residue); format: biochemical, Kluyveromyces lactis IFO 1903
Method: Benz-I was incubated in the presence of 10 mM of EDTA at 4° C. for one hour. When the enzyme was completely inactivated, the culture was dialyzed against 10 mM tris hydrochloride buffer solution (pH 7.0) containing 0.2% of Lubrol PX to thereby completely remove the EDTA. The enzyme mixture thus dialyzed was examined with respect to the recovery of the activity in reaction mixtures containing 0.5 mM of various metal ions.

[6] = tested on: protease specific for basic amino acid residue from Sporobolomyces odrus IFO 1597; format: biochemical
Method: The enzyme was treated in the standard reaction mixture containing 1 mM of EDTA and free from any substrate at 25° C. for 30 minutes. Various metal ions were added thereto each in such an amount as to give a concentration of 1.5 mM and the mixture was incubated at 30° C. for five minutes. Then the activity of each case was determined.

protease B = assay: Activation and inhibition of protease B (stated properties); format: biochemical, Kluyveromyces lactis IFO 1903
protease A = assay: Activation and inhibition of protease A (stated properties); format: biochemical, Sporobolomyces odrus IFO 1597
Method: The enzymes was incubated in the absence of any substrate in standard reaction mixtures containing various inhibitors at 25° C. for 30 minutes. After adding the substrate, the residual activity of each enzyme was determined.
The enzyme was reacted in the standard reaction mixture while varying the type and concentration of surfactants.
The activity of the enzyme was determined in the presence of 0.1% of EDTA while varying the concentration of CaCl2. […] The concentration of free CaCl2 was calculated from the apparent dissociation constant (K1) of EDTA for CaCl2 (log K1 =7.3).

[7] = tested on: Benz-I (protease specific for basic amino acid residue); assay: Behavior of Benz-I against various inhibitors (residual activity); format: biochemical, Kluyveromyces lactis IFO 1903; details: 25° C. 30 minutes, control lot = 100
[8] = tested on: Benz-II (protease specific for basic amino acid residue); assay: Behavior of Benz-II against various inhibitors (residual activity); format: biochemical, Kluyveromyces lactis IFO 1903; details: 25° C. 30 minutes, control lot = 100
[9] = tested on: protease specific for basic amino acid residue from Sporobolomyces odrus IFO 1597; assay: Behavior of Sporobolomyces protease against various inhibitors (residual activity); format: biochemical
[10] = 200 mU Benz-I, 50 nmol peptide, 30° C., 20 hours
[11] = Benz-I treated with 10 mM EDTA, dialyzed, reaction mixture with 0.5 mM metal ion, control lot = 100
[12] = EDTA treatment +, reaction system EDTA (1 mM) +, metal 1.5 mM, 30° C. five minutes
[13] = Ca2+ +, inhibitor 1 mM, 25° C. 30 minutes

## Cc1cc(=O)oc2cc(NC(=O)[C@H](CCCNC(=N)N)NC(=O)[C@H](CCCCN)NC(=O)CNC(=O)OC(C)(C)C)ccc12 [Boc--Gly--Lys--Arg--MCA] (Boc-Gly-Lys-Arg-{AMC})
[1]
  Relative activity of Benz-I for substrate: 120
[2]
  Relative activity of Benz-II for substrate: 123
[3]
  Activity (relative) for substrate: 59%

## Cc1cc(=O)oc2cc(NC(=O)[C@H](CCCNC(=N)N)NC(=O)[C@H](CCCNC(=N)N)NC(=O)[C@H](CC(C)C)NC(=O)OC(C)(C)C)ccc12 [Boc--Leu--Arg--Arg--MCA] (Boc-Leu-Arg-Arg-{AMC})
[1]
  Relative activity of Benz-I for substrate: 159
[2]
  Relative activity of Benz-II for substrate: 156
[3]
  Activity (relative) for substrate: 115%

## Cc1cc(=O)oc2cc(NC(=O)[C@H](CCCNC(=N)N)NC(=O)[C@H](CCCCN)NC(=O)[C@H](CC(C)C)NC(=O)OC(C)(C)C)ccc12 [Boc--Leu--Lys--Arg--MCA] (Boc-Leu-Lys-Arg-{AMC})
[1]
  Relative activity of Benz-I for substrate: 123
[2]
  Relative activity of Benz-II for substrate: 127
[3]
  Activity (relative) for substrate: 75%

## Cc1cc(=O)oc2cc(NC(=O)[C@H](CCCNC(=N)N)NC(=O)[C@@H](NC(=O)[C@H](CO)NC(=O)[C@H](CC(C)C)NC(=O)OC(C)(C)C)[C@@H](C)O)ccc12 [Boc--Leu--Ser--Thr--Arg--MCA] (Boc-LSTR-{AMC})
[1]
  Relative activity of Benz-I for substrate: 127
[2]
  Relative activity of Benz-II for substrate: 97.0
[3]
  Activity (relative) for substrate: 2%

## Cc1cc(=O)oc2cc(NC(=O)[C@H](CCCNC(=N)N)NC(=O)[C@@H](NC(=O)[C@H](CC(C)C)NC(=O)OC(C)(C)C)[C@@H](C)O)ccc12 [Boc--Leu--Thr--Arg--MCA] (Boc-Leu-Thr-Arg-{AMC})
[1]
  Relative activity of Benz-I for substrate: 20.0
[2]
  Relative activity of Benz-II for substrate: 13.9
[3]
  Activity (relative) for substrate: 3%

## Cc1cc(=O)oc2cc(NC(=O)[C@H](CCCNC(=N)N)NC(=O)[C@@H]3CCCN3C(=O)[C@@H](NC(=O)OC(C)(C)C)C(C)C)ccc12 [Boc--Val--Pro--Arg--MCA] (Boc-Val-Pro-Arg-{AMC})
[1]
  Relative activity of Benz-I for substrate: 107
[2]
  Relative activity of Benz-II for substrate: 88.0
[3]
  Activity (relative) for substrate: 26%

## CC[C@H](C)[C@H](NC(=O)[C@H](Cc1c[nH]c2ccccc12)NC(=O)[C@@H]1CCCN1C(=O)[C@H](CCCNC(=N)N)NC(=O)[C@H](CCCCN)NC(=O)CNC(=O)[C@@H]1CCC(=O)N1)C(=O)N[C@@H](CC(C)C)C(=O)O [Xenopsin] ([pGlu]GKRPWIL-OH)
[4]; [10]
  Fragment obtained (assumed from amino acid composition) after reaction with Benz-I: pGlu-Gly-Lys-Arg

## [Ca+2].[Cl-].[Cl-] [calcium chloride]
[5]; [11]
  Relative activity: 93.1%
[6]; [12]
  Relative activity: 107%
Protease B; statement in words
  activation of protease B: activated
Protease A; statement in words
  activation of protease A: best activated

## [Cl][Co][Cl] [cobalt chloride]
[5]; [11]
  Relative activity: 21.1%
[6]; [12]
  Relative activity: 57%

## O=S(=O)([O-])[O-].[Cu+2] [copper sulfate]
[7]; inhibitor 1 mM
  Residual activity of Benz-I: 0.2
[8]; inhibitor 1 mM
  Residual activity of Benz-II: 0.6
[9]; [13]
  relative activity (residual): 2%
Protease B; statement in words
  inhibition of protease B: inhibited
Protease A; statement in words
  inhibition of protease A: inhibited

## O=C(O)CN(CCOCCOCCN(CC(=O)O)CC(=O)O)CC(=O)O [ethylene glycol bis(2-aminoethyl ether)tetraacetic acid]
[7]; inhibitor 1 mM
  Residual activity of Benz-I: 53
[7]; inhibitor 5 mM
  Residual activity of Benz-I: 12
[8]; inhibitor 1 mM
  Residual activity of Benz-II: 43
[8]; inhibitor 5 mM
  Residual activity of Benz-II: 12
[9]; Ca2+ --, inhibitor 1 mM, 25° C. 30 minutes
  relative activity (residual): 10%
Protease B; statement in words
  inhibition of protease B: inhibited
Protease A; statement in words
  inhibition of protease A: inhibited

## O=C(O)CN(CCN(CC(=O)O)CC(=O)O)CC(=O)O [ethylenediaminetetraacetic acid]
[5]
  Relative activity: 0.36%
[5]; 10000 µM
  Relative activity: 0.09%
[9]; pH 7, 30 min, 1000 µM
  relative activity (residual): 2%
[6]
  Relative activity: 3%
[6]; pH 7, 1000 µM
  Relative activity: 0%
Protease B
  inhibition of protease B: inhibited
Protease A
  inhibition of protease A: inhibited

## [Cl-].[Cl-].[Mg+2] [magnesium chloride]
[5]; [11]
  Relative activity: 43.6%
[6]; [12]
  Relative activity: 12%

## [Cl][Mn][Cl] [manganese chloride]
[5]; [11]
  Relative activity: 33.9%
[6]; [12]
  Relative activity: 53%

## [Cl][Hg][Cl] [mercury chloride]
[7]; inhibitor 1 mM
  Residual activity of Benz-I: 0
[8]; inhibitor 1 mM
  Residual activity of Benz-II: 0
[9]; [13]
  relative activity (residual): 0%
Protease B; statement in words
  inhibition of protease B: inhibited
Protease A; statement in words
  inhibition of protease A: inhibited

## [Cl][Ni][Cl] [nickel chloride]
[5]; [11]
  Relative activity: 16.1%
[6]; [12]
  Relative activity: 58%

## N=C(N)c1ccc(CS(=O)(=O)F)cc1 [p-amidino-PMSF, p-amidinophenylmethanesulfonyl fluoride]
[7]; inhibitor 1 mM
  Residual activity of Benz-I: 0
[8]; inhibitor 1 mM
  Residual activity of Benz-II: 0
[9]; [13]
  relative activity (residual): 10%
Protease B; statement in words
  inhibition of protease B: inhibited
Protease A; statement in words
  inhibition of protease A: inhibited

## O=C(O)c1cc[c]([Hg][Cl])cc1 [p-chloromercuribenzoic acid]
[7]; inhibitor 50 μM
  Residual activity of Benz-I: 1
[8]; inhibitor 50 μM
  Residual activity of Benz-II: 3
[9]; Ca2+ +, inhibitor 50 μM, 25° C. 30 minutes
  relative activity (residual): 36%
Protease B; statement in words
  inhibition of protease B: inhibited
Protease A; statement in words
  inhibition of protease A: inhibited

## [Cl-].[Cl-].[Zn+2] [zinc chloride]
[7]; inhibitor 1 mM
  Residual activity of Benz-I: 7
[8]; inhibitor 1 mM
  Residual activity of Benz-II: 7
[9]; [13]
  relative activity (residual): 1%
Protease B; statement in words
  inhibition of protease B: inhibited
Protease A; statement in words
  inhibition of protease A: inhibited

## RKRSRKE [protein kinase-related peptide]
[4]; [10]
  Fragment obtained (assumed from amino acid composition) after reaction with Benz-I: Ser-Arg-Lys-Glu

## Triton X-100
Protease B; statement in words
  activation of protease B: activated
Protease A; statement in words
  activation of protease A: activated

## Tyr-Gly-Gly-Phe-Leu-Arg-Arg-Ile-Arg-Pro-Lys-Leu-Lys (YGGFLRRIRPKLK; printed: Tyr-Gly-Gly-Phe-Leu-Arg-Arg-Ile-Arg-Pro-Lys-Leu-Lys) [Dynorphin A (1-13)]
[4]
  Fragment obtained (assumed from amino acid composition) after reaction with Benz-I: Ile-Arg-Pro-Lys-Leu-Lys; also recorded: Try-Gly-Gly-Phe-Leu-Arg-Arg

## YGGFMRRVGRPEWWMDYQKRYGGFL [3200-dalton Adrenal Peptide E]
[4]
  Fragment obtained (assumed from amino acid composition) after reaction with Benz-I: ^1 Tyr-Gly-Gly-Phe-Met-Arg-^7 Arg; also recorded: ^21 Tyr-Gly-Gly-Phe-^25 Leu
